The values that follow come from ChEMBL document CHEMBL5233268, “Application of marine natural products in drug research” (Bioorg Med Chem, 2021).

pIC50: −log10 of the molar value. In brackets after ≈: the same amount, converted by molar mass.

The subject of one experiment is KB. Briefly: Cytotoxicity against human KB cells assessed as inhibition of cell growth. The format is functional, cell-based.
A further experiment has as its target 5'-nucleotidase (Homo sapiens, UniProt P21589). Briefly: Inhibition of human N-terminal Ecto-5'-nucleotidase.

What is called IC50 is the concentration needed to halve the response being measured. As a reminder, the pIC50 is the IC50 on a negative log10 scale, so that one unit is a factor of ten. Low values mean a high IC50, high ones a low IC50.

5'-nucleotidase, sequence (P21589 whole entry): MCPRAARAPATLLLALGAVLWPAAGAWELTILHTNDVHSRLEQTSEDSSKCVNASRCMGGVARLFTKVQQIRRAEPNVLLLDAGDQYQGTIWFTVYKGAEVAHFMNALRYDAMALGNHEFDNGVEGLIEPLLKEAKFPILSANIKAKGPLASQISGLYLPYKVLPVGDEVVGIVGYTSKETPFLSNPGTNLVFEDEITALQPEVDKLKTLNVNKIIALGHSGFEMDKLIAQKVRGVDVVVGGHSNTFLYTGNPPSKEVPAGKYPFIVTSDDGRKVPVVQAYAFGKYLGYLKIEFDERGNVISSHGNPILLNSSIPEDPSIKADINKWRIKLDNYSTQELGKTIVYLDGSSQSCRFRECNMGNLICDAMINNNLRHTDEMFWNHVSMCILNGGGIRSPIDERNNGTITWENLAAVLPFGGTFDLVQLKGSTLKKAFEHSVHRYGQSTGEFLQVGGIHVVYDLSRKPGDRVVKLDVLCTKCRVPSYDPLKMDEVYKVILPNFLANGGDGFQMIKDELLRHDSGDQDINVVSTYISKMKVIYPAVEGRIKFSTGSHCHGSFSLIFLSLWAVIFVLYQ

`COc1ccc(C[C@H]2NC(=O)/C=C/C[C@@H]([C@H](C)[C@H]3O[C@@H]3c3ccccc3)OC(=O)[C@H](CC(C)C)OC(=O)CCNC2=O)cc1` [ARENASTATIN A]: the IC50 in the experiment with KB was found to be 0.005 ng/mL (≈ 0.00824 nM).

`Nc1ncc(/C=C/CNC(=O)c2ccc[nH]2)[nH]1` [CLATHRODIN]: the pIC50 on 5'-nucleotidase was 5.80.

In the case of `Nc1ncc(/C=C/CNC(=O)c2cc(Br)c(Br)[nH]2)[nH]1` [OROIDIN], the pIC50 on 5'-nucleotidase was 5.80.
